What is called EC50 is the concentration giving half of the maximal effect. A higher EC50 goes with weaker potency.

Sequence of Human TRPA1 (O75762 whole entry, looked up): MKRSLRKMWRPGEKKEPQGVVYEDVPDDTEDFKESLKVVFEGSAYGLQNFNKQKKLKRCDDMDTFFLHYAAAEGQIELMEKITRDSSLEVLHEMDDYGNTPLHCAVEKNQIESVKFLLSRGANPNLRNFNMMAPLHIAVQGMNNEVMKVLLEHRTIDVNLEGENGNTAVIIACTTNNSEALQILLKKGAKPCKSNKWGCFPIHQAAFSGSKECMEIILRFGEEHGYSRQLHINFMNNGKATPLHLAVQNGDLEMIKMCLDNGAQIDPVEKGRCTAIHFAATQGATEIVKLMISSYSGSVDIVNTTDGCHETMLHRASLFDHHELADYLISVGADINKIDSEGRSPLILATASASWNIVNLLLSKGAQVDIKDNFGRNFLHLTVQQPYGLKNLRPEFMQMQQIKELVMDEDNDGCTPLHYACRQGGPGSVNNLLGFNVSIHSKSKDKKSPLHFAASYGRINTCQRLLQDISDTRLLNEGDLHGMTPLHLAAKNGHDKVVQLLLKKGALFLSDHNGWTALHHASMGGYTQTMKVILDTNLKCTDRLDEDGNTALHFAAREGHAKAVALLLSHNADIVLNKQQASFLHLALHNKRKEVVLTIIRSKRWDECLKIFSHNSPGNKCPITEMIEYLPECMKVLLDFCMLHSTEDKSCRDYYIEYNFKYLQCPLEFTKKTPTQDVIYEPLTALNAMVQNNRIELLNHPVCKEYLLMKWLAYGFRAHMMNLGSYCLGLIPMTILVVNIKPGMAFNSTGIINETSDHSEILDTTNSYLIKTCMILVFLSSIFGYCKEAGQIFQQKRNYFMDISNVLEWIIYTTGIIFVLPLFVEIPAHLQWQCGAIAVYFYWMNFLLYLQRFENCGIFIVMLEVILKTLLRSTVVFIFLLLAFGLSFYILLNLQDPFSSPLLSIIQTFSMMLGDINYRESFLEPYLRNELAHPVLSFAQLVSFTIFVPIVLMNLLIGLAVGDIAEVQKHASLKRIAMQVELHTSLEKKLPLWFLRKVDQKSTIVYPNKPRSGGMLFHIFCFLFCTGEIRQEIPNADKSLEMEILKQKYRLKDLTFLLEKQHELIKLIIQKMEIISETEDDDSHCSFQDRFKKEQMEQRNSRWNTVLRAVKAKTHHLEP

One test addresses Human TRPA1 (Homo sapiens, UniProt O75762). Put plainly: cell-based.
Conditions: not given
Turning to `COC(=O)c1ccc2c(c1)Cc1ccccc1C=N2` [Compound 3], the “pEC50 values for TRPA1 agonism” value is listed as 9.24.
With `COC(=O)c1ccc2c(c1)Oc1ccccc1N=C2` [Compound 10], the “pEC50 values for TRPA1 agonism” value is 7.28.
Take `COC(=O)c1cccc2c1Oc1ccccc1N=C2` [Compound 12]: the “pEC50 values for TRPA1 agonism” value was 10.22.
For `CCCCOC(=O)c1cccc2c1Cc1ccccc1N=C2` [Compound 13], the “pEC50 values for TRPA1 agonism” value came out at 8.07.
For `COC(=O)c1cccc2c1Cc1ccccc1C=N2` [Compound 17], the “pEC50 values for TRPA1 agonism” value was determined as 9.24.
Take `NC(=O)c1cccc2c1Oc1ccccc1N=C2` [Compound 21]: the “pEC50 values for TRPA1 agonism” value turned out to be 10.12.
On the same count and under the same terms, the result for `COC(=O)c1cccc2c1Oc1ccccc1C=N2` [Compound 23] reads 9.93.

Staying with this test, now noted: pEC50 values for TRPA1 agonism.
As to `COC(=O)c1ccc2c(c1)C=Nc1ccccc1C2` [Compound 1], the EC50 was 93.3 nM.
For the molecule `O=C(O)c1cccc2c1Cc1ccccc1N=C2` [Compound 4], the response was half-maximal at 363 nM (EC50). Compared with the last molecule, the EC50 is about 3.9-fold higher.
Molecule `CCN(CC)C(=O)c1cccc2c1Cc1ccccc1N=C2` [Compound 5] showed an EC50 of 44.7 nM.
In turn, `COCCCNC(=O)c1cccc2c1Cc1ccccc1N=C2` [Compound 6] showed an EC50 of 8.71 nM.
Take `COCCCNC(=O)c1cccc2c1Cc1ccccc1N=C2` [Compound 7]: the EC50 was 5.89 nM.
For `CN1CCN(C(=O)c2ccc3c(c2)Cc2ccccc2C=N3)CC1` [Compound 8], a half-maximal effect (EC50) was put at 3.16 nM. Compared with the last molecule, the EC50 is about 1.9-fold lower.
With `COC(=O)c1cccc2c1Oc1ccccc1N=C2` [Compound 11], the midpoint of the response, the EC50, lay at 0.0813 nM.
`CCCCOC(=O)c1cccc2c1Cc1ccccc1N=C2` [Compound 14] gave an EC50 of 5.62 nM.
With `CN1CCN(C(=O)c2ccc3c(c2)Cc2ccccc2N=C3)CC1` [Compound 15], the concentration giving a half-maximal response (EC50) was 1620 nM.
Still for that read-out and setting: the result for `COC(=O)c1cccc2c1N=Cc1ccccc1C2` [Compound 18] reads 27.5 nM.
On to `COC(=O)c1cccc2c1C=Nc1ccccc1C2` [Compound 19], for which the EC50 is 28.8 nM.
In turn, `COC(=O)c1ccc2c(c1)N=Cc1ccccc1C2` [Compound 20] gave an EC50 of 28.2 nM.
As for `COC(=O)c1cccc2c1Oc1ccccc1C=N2` [Compound 24], the midpoint of the response, the EC50, lay at 0.0741 nM.
In turn, `COC(=O)c1cccc2c1Cc1ccccc1C=N2` [Compound 25] showed an EC50 of 0.447 nM. This EC50 is about 6-fold higher than that of the molecule before.
Still for that read-out and setting: in the case of `COC(=O)c1cccc2c1N=Cc1ccccc1C2` [Compound 26] it was 38 nM.

The values are drawn from patent publication US8461145B2 (priority 2007, dated 2013).
